Test results published in patent US10663471B2, “Fluorescent sensors of peroxynitrite targeted to the endoplasmic reticulum” (The University of Kansas, priority 2018, dated 2020).

Legend:
RAW 264.7 macrophages [1] = test: subcellular localization by confocal laser scanning microscopy; format: cell-based; details: for ratio of cytosolic (ER-associated) to nuclear fluorescence: 10 μM, 4 h, living RAW 264.7 macrophages
Excerpt: The pro-fluorophore Compounds 1-8 can cause fluorescence in living cells upon reacting with peroxynitrite. The ability of ER-targeted sensors to detect endogenous peroxynitrite during phagocytosis was further investigated by confocal laser scanning microscopy. […] The left panels of FIGS. 7A-7B show the DIC micrographs and the right panels show the confocal laser scanning micrographs. […] When the cells were additionally treated with DNP-modified amino tentagel beads (10 micron) bound to anti-DNP IgG, cellular green fluorescence is observed and localized to the endoplasmic reticulum. In FIG. 7B, the white arrows point at phagocytosed beads. The scale bar in FIG. 7B is 25 microns. The right panel of FIG. 7A is relatively blank (white instead of black), and then fluorescence is seen in the right panel of FIG. 7B, thereby showing that there is localization to the ER by the compounds of the present invention.
After correcting for differences in brightness, this interpretation was further supported by analysis of cells treated with Compounds 1-8 by flow cytometry.
Analysis of Subcellular Localization.
RAW264.7 macrophages were scraped to passage and diluted to 300,000 cells/mL in complete medium. These cells were plated in an ibiTreat-coated 8-well μ-Slide (ibidi, 300 μL of media per well) and incubated at 37° C. overnight. The next day, the wells were washed once with complete media before treatment with fluorescent probes. Fluorescent sensors in DMSO stock solutions were diluted into complete media and added to cells. ER-Tracker Blue-White DPX (ThermoFisher Scientific) was diluted in DMSO to 100 μM followed by 1:1000 dilution with complete media. Labeled tentagel beads were added to cells at 200,000 beads/mL. Cells were incubated for 4 h at 37° C. followed by imaging by confocal microscopy (without washing). Phagocytosed beads were identified by morphology such as compression of the nucleus around the bead and adjacent fluorescence of ER membranes. […] To quantify the ratio of cytosolic to nuclear fluorescence (FIG. 8), Leica LAS X 2.0.1 software was used to define regions of interest (ROI) within the cytosol, nucleus, and cell-free regions. Mean fluorescence per pixel was calculated using Leica LAS X 2.0.1 software and plotted with SD (N=20). ROI from cell-free regions were used to subtract background fluorescence for comparison.

[2] = sensor 50 nM, PBS pH 7.4, 5 min, 23° C.
Method: Maximal fluorescence emission was measured by fluorescence spectroscopy after treatment for 5 min at 23° C. (PBS, pH 7.4, 0.1% DMSO).
A normalized DMSO stock solution of Compound 3 in DMSO (50 μM) was diluted 1:1000 with PBS (pH 7.4) to yield a 50 nM solution (0.1% DMSO) in triplicate. RNS and ROS were generated as described below and diluted into the solution in volumes that changed the overall volume by 0.5% or less. These solutions were mixed, incubated at room temperature for 5 min, and transferred to a quartz cell for analysis by fluorescence spectroscopy.
The concentration of peroxynitrite was measured by absorbance spectroscopy (ε=1670 M^−1cm^−1 at 302 nm in aq. NaOH, 0.1 M). To provide stock solutions, peroxynitrite was diluted with NaOH (aq., 0.1 M). These solutions were diluted 1:1000 into solutions of Compound 3 for analysis. […] The concentration of ClO^− was verified by absorbance spectroscopy (ε=350 M^−1cm^−1 at 209 nm) in water.
Hydroxyl radical (.OH) was generated using the Fenton reaction (Jia, X., Chen, Q., Yang, Y., Tang, Y., Wang, R., Xu, Y., Zhu, W., and Qian, X. (2016) FRET-Based Mito-Specific Fluorescent Probe for Ratiometric Detection and Imaging of Endogenous Peroxynitrite: Dyad of Cy3 and Cy5, J. Am. Chem. Soc. 138, 10778-10781). […] The concentration of H2O2 was verified by absorbance spectroscopy (ε=43.6 M^−1cm^−1 at 240 nm) in water. […]

[3] = photophysical properties: quantum yields relative to rhodamine 6G in n-octanol, molar extinction coefficients in DMSO; format: physicochemical
Excerpt: Optical spectroscopic properties of the pro-fluorophore Compound 3, as a representative probe, and the rhodol product (Compound 9), in n-octanol as a mimic of ER membranes, are shown in FIG. 2.
The fluorescence emission of Compounds 1-8 was quenched by up to 1800-fold (for Compound 3, Φ=0.0004) compared to Compound 9 (Φ=0.72). However, the brightness of these sensors, calculated as the product of their measured molar extinction coefficients and quantum yields, varied by up to 30-fold (See FIGS. 2A and 2B).

cells in culture = test: cytotoxicity in culture (FIG. 5); format: cell-based; details: 10 μM, 48 hours in culture
RAW 264.7 macrophages [4] = test: detection of peroxynitrite resulting from phagocytosis by flow cytometry; format: cell-based; details: for cellular association (cellular fluorescence per sensor brightness): FIG. 8C; for response of cellular fluorescence to SIN-1: SIN-1 50 μM, HPF 10 μM in HBSS, Fl-B 50 μM in DMEM
Excerpt: The ability of the pro-fluorophore Compounds 1-8 to generate cellular fluorescence was studied. The protocol included treating living RAW 264.7 macrophages with pro-fluorophore Compounds 1-8 and quantified cellular fluorescence by flow cytometry (FIGS. 6A-6B). To trigger phagocytosis and production of endogenous peroxynitrite, these cells were additionally treated with chemically-modified amino-tentagel beads. These beads were either covalently derivatized with the fluorophore Pacific Blue, to provide a less immunostimulatory control, or covalently conjugated with DNP and non-covalently bound to anti-DNP IgG, to promote bead phagocytosis as shown in FIG. 9. To provide a spectrally orthogonal marker, lysine residues of the antibody were conjugated to PB to allow labeled beads to be distinguished from cells by flow cytometry. […] Cells were treated (4 h) with sensor Compounds 1-8 (10 μM) and 10-micron amino-tentagel beads modified either with Pacific Blue-SE (Beads-PB) or 2,4-DNP-X-SE. To the DNP-modified beads was additionally added rabbit anti-DNP IgG (Beads/IgG), conjugated to Pacific Blue via lysines, to stimulate phagocytosis.
The ER-targeting pro-fluorophores were compared with non-ER-targeted sensors of peroxynitrite: hydroxyphenyl fluorescein (HPF) and fluorescein boronate (Fl-B). Since the fluorescence of HPF can be affected by serum proteins, cells were treated with this compound in Hank's balanced salt solution (HBSS). […] In FIG. 6B, the cells were treated with Compound 3 in DMEM media or HBSS and compared with treatment with hydroxyphenyl fluorescein (HPF, 10 μM in HBSS) and fluorescein boronate (Fl-B, 50 μM in DMEM). [SIN-1]=50 μM. [FeTMPyP]=50 μM.
Detection of Peroxynitrite Resulting from Phagocytosis by Flow Cytometry.
RAW264.7 macrophages were seeded on a non-treated 96-well plate (USA Scientific) in complete media (40,000 cells, 200 μL per well) 16 h prior to treatment. These cells adhere to treated plastic very strongly, and the use of non-treated plates was required for subsequent release and analysis of cells by flow cytometry. Fluorescent sensors were diluted from DMSO stock solutions into complete media (final concentration of probe=10 μM, 0.5% DMSO). Fluorescein and Compound 3 were added to Hank's Balanced Salt Solution (HBSS, Corning, pH 7.4). Labeled tentagel beads were added to this complete media or HBSS (200,000 beads/mL). The original media was carefully removed from all wells by aspiration and replaced with the treatment media containing beads and sensors (200 μL per well) in triplicate. After incubation of treated cells at 37° C. for 4 h, aqueous propidium iodide (PI, 20 μL, 30 μM, Thermo Fisher Scientific) was added to each well (final concentration of PI=3 μM). A p200 multichannel pipette was used to release the cells from the plate via sheer force. Cellular fluorescence was analyzed by flow cytometry. Viability was determined by gating based on staining of cells with compromised membranes with PI. Tentagel beads take up significant amounts of PI, making them brighter than cells at 690/50 nm. Additionally, labeling of tentagel beads with Pacific Blue makes them brighter than cells when excited at 405 nm, and additional excitation at this wavelength was used to assure that all beads were excluded from gating of live cells. Median values of fluorescence of living cells in the FITC-A channel (525/40 nm) were compared and plotted.

[5] = limit of detection of peroxynitrite by fluorescence spectroscopy; details: sensor 50 nM in PBS pH 7.4, 0.1% DMSO, 5 min, 23° C.
Method: (PBS, pH 7.4, 0.1% DMSO).
Determination of the Limit of Detection of Peroxynitrite by Compound 3.
The concentration of a stock solution of pure peroxynitrite was measured by absorbance spectroscopy and diluted with aq. NaOH (0.1 M) to provide additional stock solutions. […] The detection limit of Compound 3 was determined based on a reported method (Yu, F., Li, P., Wang, B., and Han, K. (2013) Reversible near-infrared fluorescent probe introducing tellurium to mimetic glutathione peroxidase for monitoring the redox cycles between peroxynitrite and glutathione in vivo, J. Am. Chem. Soc. 135, 7674-7680; Shortreed, M., Kopelman, R., Kuhn, M., and Hoyland, B. (1996) Fluorescent fiber-optic calcium sensor for physiological measurements, Anal. Chem. 68, 1414-1418). The fluorescence emission at 526 nm was normalized between the minimum intensity (0 nM peroxynitrite, Fmin) and the maximum intensity (500 nM peroxynitrite, Fmax) using the following equation: (F−Fmin)/(Fmax−Fmin). […]

[6] = cited from earlier work

**Q.** For Cc1cc(N(C)c2cc3oc4cc(=O)c(F)cc-4c(-c4ccccc4C)c3cc2F)ccc1O [Compound 2], which “ratio of cytosolic (ER-associated) to nuclear fluorescence” value (“ratio of cytosolic (ER-associated)” for short) (RAW 264.7 macrophages [1]) is on record?
**A.** 3.7

**Q.** With Cc1ccccc1-c1c2cc(F)c(=O)cc-2oc2cc(N(C)c3cc(C)c(O)c(C)c3)c(F)cc12 [Compound 3] as the compound, how does the “selectivity for peroxynitrite versus perchlorite, hydroxyl radical, superoxide, peroxides, nitric oxide” value [2] read?
**A.** highly selective for peroxynitrite

**Q.** And the “quantum yield Φ” value [3]?
**A.** 0.0004

**Q.** What about the cytotoxicity (cells in culture) of the same compound?
**A.** negligible cytotoxicity

**Q.** And the “conversion by SIN-1 to Compound 9, analysis by HPLC” value (HPLC)?
**A.** cleanly convert

**Q.** And the “pseudo-first-order half-time t1/2 of reaction with SIN-1” value (buffer, pH 7.4)?
**A.** 49 s

**Q.** What about the “decrease of cellular fluorescence on co-treatment with peroxynitrite decomposition catalyst FeTMPyP” value (RAW 264.7 macrophages [4]; IgG-bound beads, FeTMPyP 50 μM) of the same compound?
**A.** over 50%

**Q.** What about the “detection of peroxynitrite upon mild treatment of cells with antibody-opsonized tentagel beads” value (RAW 264.7 macrophages [4]; flow cytometry, FIG. 6B) of the same compound?
**A.** could detect peroxynitrite

**Q.** And the “concentration in cells relative to Compound 5” value (RAW 264.7 macrophages [4]; flow cytometry, corrected for brightness, identical conditions (FIG. 8C))?
**A.** 4 fold

**Q.** And the “change in cellular fluorescence upon addition of IgG-coated beads” value (RAW 264.7 macrophages [4]; sensor 10 μM, 4 h, Beads/IgG, flow cytometry)?
**A.** 10 fold

**Q.** What about the “approximate limit of detection: peroxynitrite giving a 2-fold increase in fluorescence intensity” value [5] of the same compound?
**A.** ~40 nM

**Q.** What about the “cytosolic fluorescence after addition of antibody-opsonized beads” value (RAW 264.7 macrophages [1]; 10 μM sensor, tentagel beads/IgG, confocal microscopy) of the same compound?
**A.** dramatic increase in localized cytosolic fluorescence

**Q.** What about the “ratio of cytosolic (ER-associated)” value (RAW 264.7 macrophages [1]) of the same compound?
**A.** 6.7

**Q.** What about the “fluorescence enhancement on co-treatment with FeTMPyP” value (RAW 264.7 macrophages [1]; confocal microscopy, data not shown) of the same compound?
**A.** substantially reduced

**Q.** And the “accumulation in the ER by co-localization with ER tracker blue-white DPX” value (RAW 264.7 macrophages [1]; data not shown)?
**A.** confirmed to accumulate in the ER

**Q.** Which “cellular association (cellular fluorescence per sensor brightness)” value (RAW 264.7 macrophages [4]; flow cytometry) does the source give for Cc1ccccc1-c1c2cc(F)c(=O)cc-2oc2cc(N(C)c3cc(C(C)(C)C)c(O)c(C(C)(C)C)c3)c(F)cc12 [Compound 4] here?
**A.** lower cellular association than Compound 2

**Q.** With COc1cc(N(C)c2cc3oc4cc(=O)c(F)cc-4c(-c4ccccc4C)c3cc2F)ccc1O [Compound 5] as the compound, how does the “ratio of cytosolic (ER-associated)” value (RAW 264.7 macrophages [1]) read?
**A.** 2.6

**Q.** Which “cellular association (cellular fluorescence per sensor brightness)” value (RAW 264.7 macrophages [4]; flow cytometry) does the source give for Cc1ccccc1-c1c2cc(F)c(=O)cc-2oc2cc(N(C)c3cc(Cl)c(O)c(Cl)c3)c(F)cc12 [Compound 8] here?
**A.** lowest cellular association

**Q.** With CNc1cc2oc3cc(=O)c(F)cc-3c(-c3ccccc3C)c2cc1F [Compound 9] as the compound, how does the “quantum yield Φ” value [3] read?
**A.** 0.72

**Q.** What about the “accumulation in the ER by co-localization with ER tracker blue-white DPX” value (RAW 264.7 macrophages [1]; data not shown) of the same compound?
**A.** confirmed to accumulate in the ER

**Q.** And the “time to extensive loss of cellular fluorescence after washing cells once with complete media (efflux)” value (RAW 264.7 macrophages [1]; data not shown)?
**A.** 10 to 20 min

**Q.** For O=C1OC2(c3ccc(O)cc3Oc3cc(Oc4ccc(O)cc4)ccc32)c2ccccc21 (stereo not drawn) [HPF, hydroxyphenyl fluorescein, reference compound], which “response of cellular fluorescence to SIN-1” value (RAW 264.7 macrophages [4]) is on record?
**A.** responded to SIN-1 and could increase cellular fluorescence

**Q.** Which pKa [6] does the source give for O=NOO [peroxynitrous acid] here?
**A.** 6.84

**Q.** Which “response of cellular fluorescence to SIN-1” value (RAW 264.7 macrophages [4]) does the source give for “fluorescein boronate [Fl-B, reference compound]” here?
**A.** responded to SIN-1 and could increase cellular fluorescence
